The results in this text go back to patent EP0730590B1, “ISOXAZOLINE AND ISOXAZOLE FIBRINOGEN RECEPTOR ANTAGONISTS” (Dupont Pharmaceuticals Company, priority 1993, dated 1995).

Where only a bound is given, the exact number is not on record here.

Chain of agonist-induced platelet aggregation (P08514 with tags, fused parts or gaps): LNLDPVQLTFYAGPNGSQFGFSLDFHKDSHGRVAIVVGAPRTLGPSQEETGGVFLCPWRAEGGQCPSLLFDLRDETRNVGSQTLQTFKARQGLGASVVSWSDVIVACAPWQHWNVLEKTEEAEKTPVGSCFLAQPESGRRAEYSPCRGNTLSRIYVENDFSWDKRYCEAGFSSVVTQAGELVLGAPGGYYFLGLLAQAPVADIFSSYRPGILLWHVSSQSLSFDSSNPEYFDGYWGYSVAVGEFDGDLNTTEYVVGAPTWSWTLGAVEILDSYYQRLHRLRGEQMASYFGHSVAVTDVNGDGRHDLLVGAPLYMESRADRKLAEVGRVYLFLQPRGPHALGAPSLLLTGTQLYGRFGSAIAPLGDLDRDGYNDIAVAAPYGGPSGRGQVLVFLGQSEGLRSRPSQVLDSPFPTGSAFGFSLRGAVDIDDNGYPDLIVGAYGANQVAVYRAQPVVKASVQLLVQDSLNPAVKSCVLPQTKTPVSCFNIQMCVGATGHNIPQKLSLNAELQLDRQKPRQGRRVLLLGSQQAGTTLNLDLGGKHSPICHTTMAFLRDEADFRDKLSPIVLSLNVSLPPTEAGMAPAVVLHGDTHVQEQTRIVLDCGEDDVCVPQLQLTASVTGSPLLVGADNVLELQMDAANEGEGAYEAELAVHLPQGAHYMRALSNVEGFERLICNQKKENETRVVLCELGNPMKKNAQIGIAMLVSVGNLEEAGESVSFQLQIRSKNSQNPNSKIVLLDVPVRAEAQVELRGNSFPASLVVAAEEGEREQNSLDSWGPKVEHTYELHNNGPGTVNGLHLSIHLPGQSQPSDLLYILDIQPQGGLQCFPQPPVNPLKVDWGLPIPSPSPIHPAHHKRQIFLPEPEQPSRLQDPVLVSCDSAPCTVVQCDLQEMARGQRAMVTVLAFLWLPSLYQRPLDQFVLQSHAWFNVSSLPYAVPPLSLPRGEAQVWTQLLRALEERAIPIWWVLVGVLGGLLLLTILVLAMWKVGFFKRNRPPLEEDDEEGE
Chain of agonist-induced platelet aggregation (P05106 27-788): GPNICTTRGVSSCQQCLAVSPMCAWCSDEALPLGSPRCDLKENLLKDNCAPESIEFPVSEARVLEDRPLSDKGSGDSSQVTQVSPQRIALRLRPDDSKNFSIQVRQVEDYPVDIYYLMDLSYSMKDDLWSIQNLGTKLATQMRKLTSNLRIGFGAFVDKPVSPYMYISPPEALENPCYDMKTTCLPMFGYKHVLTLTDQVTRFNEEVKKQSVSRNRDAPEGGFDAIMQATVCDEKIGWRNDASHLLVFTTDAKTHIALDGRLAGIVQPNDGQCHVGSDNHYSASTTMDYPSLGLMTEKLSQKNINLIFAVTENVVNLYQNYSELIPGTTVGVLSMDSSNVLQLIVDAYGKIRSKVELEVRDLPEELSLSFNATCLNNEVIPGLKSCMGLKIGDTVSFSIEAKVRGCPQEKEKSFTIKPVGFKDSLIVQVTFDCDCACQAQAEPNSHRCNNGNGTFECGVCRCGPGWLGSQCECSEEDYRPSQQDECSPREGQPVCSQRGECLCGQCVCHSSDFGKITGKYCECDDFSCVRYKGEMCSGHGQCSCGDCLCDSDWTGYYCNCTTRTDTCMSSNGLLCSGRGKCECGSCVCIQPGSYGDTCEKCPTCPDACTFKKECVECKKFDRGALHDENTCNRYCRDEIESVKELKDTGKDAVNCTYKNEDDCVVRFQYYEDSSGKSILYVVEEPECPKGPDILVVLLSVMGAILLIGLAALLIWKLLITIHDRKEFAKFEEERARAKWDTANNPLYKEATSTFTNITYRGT

In the first assay the target is human platelet rich plasma (Homo sapiens, UniProt P05106+P08514). Kind of assay: Platelet Aggregation Assay, ester prodrugs preincubated with porcine liver esterase. It is filed as cell-based. To be noted: platelet rich plasma (PRP). How it is done: Aliquots are then diluted in 0.1 M Tris, pH 7.4, to the desired concentrations. Aliquots of 20 µl of the esterase pretreated prodrugs are added to 200 µl of human platelet rich plasma. […] Platelet aggregation was allowed to proceed for 5 minutes. Percent inhibition is calculated using percent aggregation in the presence of the test compound divided by percent aggregation of control, times 100. This value is subtracted from 100, yielding percent inhibition. Calculation of IC50 is performed on a Texas Instruments TI59 with an IC50 program.
Chain of human platelet rich plasma (P08514 with tags, fused parts or gaps): as the sequence (P08514 with tags, fused parts or gaps) above
Chain of human platelet rich plasma (P05106 27-788): as the sequence (P05106 27-788) above
Regarding `COC(=O)C(CNC(=O)CC1CC(c2ccc(C(=N)N)cc2)=NO1)NC(=O)c1ccc(-c2ccccc2)cc1` (stereo not shown) [Example 523], the half-maximal inhibitory concentration (IC50) (as a rule, the concentration that inhibits the measured activity by half) is less than 10 µM. On to `COC(=O)C(CNC(=O)CC1CC(c2ccc(C(=N)N)cc2)=NO1)NS(=O)(=O)c1ccc(-c2ccccc2)cc1` (stereo not shown) [Example 546], for which the IC50 was less than 10 µM. Same read-out and setting: the result for “Methyl N^2-(m-toluenesulfonyl)-N^3-[3-(2-amidinopyrid-5-yl)isoxazolin-5-ylacetyl]-S-2,3-diaminopropionate bis hydrochloric acid salt [Example 516]” reads less than 10 µM; that for “Methyl N^2-(m-toluenesulfonyl)-N^3-[3-(3-amidinopyrid-6-yl)isoxazolin-5-ylacetyl]-S-2,3-diaminopropionate bis hydrochloric acid salt [Example 514]”, less than 10 µM.

For “Methyl N^2-(n-butyloxycarbonyl)-N^3-[3-(2-amidinopyrid-5-yl) isoxazolin-5-ylacetyl]-S-2,3-diaminopropionate bis hydrochloric acid salt [Example 515]”, the concentration for half-maximal inhibition (IC50) was less than 10 µM. Turning to “Methyl N^2-(n-butyloxycarbonyl)-N^3-[3-(3-amidinopyrid-6-yl) isoxazolin-5-ylacetyl]-S-2,3-diaminopropionate bis hydrochloric acid salt [Example 513]”, the 50% inhibitory concentration (IC50) is less than 10 µM.

In the next assay the target is agonist-induced platelet aggregation (Homo sapiens, UniProt P05106+P08514). Kind of assay: Platelet Aggregation Assay in platelet-rich plasma (PRP). It is filed as cell-based. To be noted: without esterase. The procedure:
Platelet Aggregation Assay: Venous blood was obtained from the arm of a healthy human donor who was drug-free and aspirin-free for at least two weeks prior to blood collection. Blood was collected into 10 ml citrated Vacutainer tubes. The blood was centrifuged for 15 minutes at 150 x g at room temperature, and platelet-rich plasma (PRP) was removed. The remaining blood was centrifuged for 15 minutes at 1500 x g at room temperature, and platelet-poor plasma (PPP) was removed. Samples were assayed on a aggregometer (PAP-4 Platelet Aggregation Profiler), using PPP as the blank (100% transmittance). 200 µl of PRP was added to each micro test tube, and transmittance was set to 0%. 20 µ of various agonists (ADP, collagen, arachidonate, epinephrine, thrombin) were added to each tube, and the aggregation profiles were plotted (% transmittance versus time). The results are expressed as % inhibition of agonist-induced platelet aggregation. For the IC50 evaluation, the test compounds were added at various concentrations prior to the activation of the platelets.
Table A below sets forth the antiplatelet activity of representative compounds of the present invention. The indicated compounds were tested for their ability to inhibit platelet aggregation (using platelet rich plasma (PRP)). […]
On to `O=C(O)CCCN1C(=O)CC2(CC(CCCC3CCNCC3)=NO2)C1=O` (stereo not shown) [Example 373], for which the IC50 is 10 to 50 µM.
